Results on 23 molecules are retold here after ChEMBL document CHEMBL3751798, “Targeting cancer cells with oleanolic and ursolic acid derived hydroxamates” (Bioorg Med Chem Lett, 2016).

Assay [1] is described as follows: Cytotoxicity against mouse NIH/3T3 cells after 96 hrs by SRB assay. Conditions: NIH3T3, 96 h. It is filed as cell-based. On the technique in general: In SRB staining, fixed cells bind dye roughly in proportion to their protein.
Assay [2] deals with HT-29. Nature of the assay: Cytotoxicity against human HT-29 cells after 96 hrs by SRB assay. Type of assay: functional, cell-based. Conditions: HT-29, 96 h.
The test system of assay [3] is A549. In words: Cytotoxicity against human A549 cells after 96 hrs by SRB assay. It is filed as functional, cell-based. Conditions: A549, 96 h.
Assay [4] relates to A2780. Nature of the assay: Cytotoxicity against human A2780 cells after 96 hrs by SRB assay. Type of assay: functional, cell-based. Conditions: A2780, 96 h.
Assay [5] has as its system MCF7. In words: Cytotoxicity against human MCF7 cells after 96 hrs by SRB assay. It is filed as functional, cell-based. Conditions: MCF7, 96 h.
Assay [6] has as its system FaDu. In words: Cytotoxicity against human FADU cells after 96 hrs by SRB assay. It is filed as functional, cell-based.
The nature of assay [7]: Cytotoxicity against human 518A2 cells after 96 hrs by SRB assay. It is filed as functional, cell-based. Conditions: 518A2, 96 h.

As usually defined, the EC50 is the concentration that produces a half-maximal response. The low end stands for an effect from little substance, the high end for a need for much substance. For the molecule `CONC(=O)[C@]12CC[C@@H](C)[C@H](C)[C@H]1C1=CC[C@@H]3[C@@]4(C)CC[C@H](OC(C)=O)C(C)(C)[C@@H]4CC[C@@]3(C)[C@]1(C)CC2`, the EC50 amounted to 14.8 µM in assay [1]; 13.2 µM in assay [2]; 6.6 µM in assay [3]; 10.6 µM in assay [4]; 6.8 µM in assay [5]; 12.1 µM in assay [6]. In assay [7], this molecule displayed an EC50 of 15.5 µM.

Take `CON(C)C(=O)[C@]12CCC(C)(C)C[C@H]1C1=CC[C@@H]3[C@@]4(C)CC[C@H](O)C(C)(C)[C@@H]4CC[C@@]3(C)[C@]1(C)CC2`: the EC50 in assay [1] is 20.4 µM; in assay [2] it was 5.6 µM; in assay [3], 11.8 µM; in assay [4] it was 3.4 µM; in assay [5] it was 16.2 µM; in assay [6] it was 29.8 µM. The same molecule had a concentration for a half-maximal effect (EC50) in assay [7] of 3.3 µM.

For `CONC(=O)[C@]12CC[C@@H](C)[C@H](C)[C@H]1C1=CC[C@@H]3[C@@]4(C)CC[C@H](O)C(C)(C)[C@@H]4CC[C@@]3(C)[C@]1(C)CC2`, the 50% effective concentration (EC50) in assay [1] worked out at 16.2 µM; in assay [2], 15.4 µM; in assay [3] it was 8.3 µM; in assay [4], 12.1 µM; in assay [5], 10 µM; in assay [6], 11.2 µM. The molecule also showed a concentration for a half-maximal effect (EC50) in assay [7] of 14.3 µM.

As to `C[C@H]1[C@H](C)CC[C@]2(C(=O)O)CC[C@]3(C)C(=CC[C@@H]4[C@@]5(C)CC[C@H](O)C(C)(C)[C@@H]5CC[C@]43C)[C@H]12` [URSOLIC ACID], the concentration giving a half-maximal response (EC50) stood at 18.7 µM in assay [1], 11.7 µM in assay [4] and 14.2 µM in assay [6].

For the molecule `C[C@H]1[C@H](C)CC[C@]2(C(=O)NO)CC[C@]3(C)C(=CC[C@@H]4[C@@]5(C)CC[C@H](O)C(C)(C)[C@@H]5CC[C@]43C)[C@H]12`, the EC50 is 5.5 µM in assay [1]; 7.5 µM in assay [2]; 6.7 µM in assay [3]; 4.6 µM in assay [4]; 13.1 µM in assay [5]; 18.1 µM in assay [6]. The molecule also displayed an EC50 in assay [7] of 9.4 µM.

For the molecule `CN(O)C(=O)[C@]12CCC(C)(C)C[C@H]1C1=CC[C@@H]3[C@@]4(C)CC[C@H](O)C(C)(C)[C@@H]4CC[C@@]3(C)[C@]1(C)CC2`, the EC50 stood at 11.1 µM in assay [1]; 8.7 µM in assay [2]; 9.8 µM in assay [3]; 3.9 µM in assay [4]; 8.3 µM in assay [5]; 5.8 µM in assay [6]. Also, the EC50 in assay [7] amounted to 11.6 µM.

For the molecule `CON(C)C(=O)[C@]12CC[C@@H](C)[C@H](C)[C@H]1C1=CC[C@@H]3[C@@]4(C)CCC(=O)C(C)(C)[C@@H]4CC[C@@]3(C)[C@]1(C)CC2`, the EC50 in assay [1] was 18.5 µM; in assay [2], 18.7 µM; in assay [3] it was 8.7 µM; in assay [4], 4.5 µM; in assay [5] it was 10.7 µM; in assay [6], 8.3 µM. This molecule also displayed a concentration for a half-maximal effect (EC50) in assay [7] of 15.5 µM.

Regarding `CONC(=O)[C@]12CC[C@@H](C)[C@H](C)[C@H]1C1=CC[C@@H]3[C@@]4(C)CCC(=O)C(C)(C)[C@@H]4CC[C@@]3(C)[C@]1(C)CC2`, the EC50 in assay [1] was determined as 14.3 µM; in assay [2], 12.9 µM; in assay [3], 9.2 µM; in assay [4] it was 14.3 µM; in assay [5], 11.2 µM; in assay [6], 12 µM. Besides, in assay [7], the EC50 worked out at 12.9 µM.

For `CONC(=O)[C@]12CCC(C)(C)C[C@H]1C1=CC[C@@H]3[C@@]4(C)CC[C@H](OC(C)=O)C(C)(C)[C@@H]4CC[C@@]3(C)[C@]1(C)CC2`, the half-maximal effective concentration (EC50) in assay [1] worked out at 13.2 µM; in assay [2], 17.5 µM; in assay [3], 18.6 µM; in assay [4], 10.8 µM; in assay [5], 9.1 µM; in assay [6] it was 12.3 µM. In addition, in assay [7], the EC50 was found to be 14.2 µM.

Turning to `CONC(=O)[C@]12CCC(C)(C)C[C@H]1C1=CC[C@@H]3[C@@]4(C)CC[C@H](O)C(C)(C)[C@@H]4CC[C@@]3(C)[C@]1(C)CC2`, the EC50 was found to be 18.2 µM in assay [1]; 18.8 µM in assay [2]; 20.9 µM in assay [3]; 12.3 µM in assay [4]; 17 µM in assay [5]; 14.3 µM in assay [6]. The same molecule came in with an EC50 in assay [7] of 12.8 µM.

Take `C[C@H]1[C@H](C)CC[C@]2(C(=O)N(C)O)CC[C@]3(C)C(=CC[C@@H]4[C@@]5(C)CC[C@H](O)C(C)(C)[C@@H]5CC[C@]43C)[C@H]12`: the concentration giving a half-maximal response (EC50) in assay [1] amounted to 10.1 µM; in assay [2], 12.3 µM; in assay [3], 9.7 µM; in assay [4], 4.5 µM; in assay [5] it was 15.4 µM; in assay [6] it was 15.1 µM. In assay [7], this molecule registered a 50% effective concentration (EC50) of 12.5 µM.

On to `CC(=O)O[C@H]1CC[C@]2(C)[C@H]3CC=C4[C@@H]5CC(C)(C)CC[C@]5(C(=O)NO)CC[C@@]4(C)[C@]3(C)CC[C@H]2C1(C)C`, for which the EC50 in assay [1] was 2.6 µM; in assay [2] it was 4.9 µM; in assay [3] it was 3.1 µM; in assay [4] it was 2.6 µM; in assay [5], 9.5 µM; in assay [6] it was 10.6 µM. Moreover, the EC50 in assay [7] came to 4.2 µM.

As to `CON(C)C(=O)[C@]12CCC(C)(C)C[C@H]1C1=CC[C@@H]3[C@@]4(C)CC[C@H](OC(C)=O)C(C)(C)[C@@H]4CC[C@@]3(C)[C@]1(C)CC2`, the concentration giving a half-maximal response (EC50) in assay [1] is 13.3 µM; in assay [2] it was 13.1 µM; in assay [3], 17.6 µM; in assay [4], 6.8 µM; in assay [5], 7.5 µM; in assay [6], 9.4 µM. The response in assay [7] was half-maximal at 8.4 µM (EC50).

`CC(=O)O[C@H]1CC[C@]2(C)[C@H]3CC=C4[C@@H]5[C@@H](C)[C@H](C)CC[C@]5(C(=O)N(C)O)CC[C@@]4(C)[C@]3(C)CC[C@H]2C1(C)C`: the concentration for a half-maximal effect (EC50) was found to be 6.6 µM in assay [1]; 8.7 µM in assay [2]; 5.7 µM in assay [3]; 6.5 µM in assay [4]; 7.9 µM in assay [5]; 11.3 µM in assay [6]. This molecule also returned a concentration for a half-maximal effect (EC50) in assay [7] of 8.4 µM.

In the case of `C=C(C)[C@@H]1CC[C@]2(C(=O)O)CC[C@]3(C)[C@H](CC[C@@H]4[C@@]5(C)CC[C@H](O)C(C)(C)[C@@H]5CC[C@]43C)[C@@H]12` [BETULINIC ACID], the EC50 amounted to 14.4 µM in assay [2], 15.3 µM in assay [6] and 9.4 µM in assay [7].

As to `CC(=O)O[C@H]1CC[C@]2(C)[C@H]3CC=C4[C@@H]5[C@@H](C)[C@H](C)CC[C@]5(C(=O)NO)CC[C@@]4(C)[C@]3(C)CC[C@H]2C1(C)C`, the half-maximal effective concentration (EC50) was 2.5 µM in assay [1]; 3.5 µM in assay [2]; 3.9 µM in assay [3]; 2.7 µM in assay [4]; 3.3 µM in assay [5]; 6.4 µM in assay [6]. Moreover, the EC50 in assay [7] came to 3.6 µM.

Regarding `CONC(=O)[C@]12CCC(C)(C)C[C@H]1C1=CC[C@@H]3[C@@]4(C)CCC(=O)C(C)(C)[C@@H]4CC[C@@]3(C)[C@]1(C)CC2`, the concentration giving a half-maximal response (EC50) in assay [1] amounted to 12.2 µM; in assay [2] it was 18.6 µM; in assay [3], 4.8 µM; in assay [4], 6.1 µM; in assay [5] it was 20 µM; in assay [6], 23.1 µM. It took 17.7 µM to reach a half-maximal effect in assay [7] (EC50).

For `CC(=O)O[C@H]1CC[C@]2(C)[C@H]3CC=C4[C@@H]5CC(C)(C)CC[C@]5(C(=O)N(C)O)CC[C@@]4(C)[C@]3(C)CC[C@H]2C1(C)C`, the EC50 in assay [1] was found to be 12.3 µM; in assay [2] it was 10.6 µM; in assay [3], 10.8 µM; in assay [4], 7.5 µM; in assay [5], 6.2 µM; in assay [6], 12.1 µM. The same molecule had a 50% effective concentration (EC50) in assay [7] of 9.4 µM.

`CN(O)C(=O)[C@]12CCC(C)(C)C[C@H]1C1=CC[C@@H]3[C@@]4(C)CCC(=O)C(C)(C)[C@@H]4CC[C@@]3(C)[C@]1(C)CC2`: the 50% effective concentration (EC50) in assay [1] stood at 9.2 µM; in assay [2], 11.9 µM; in assay [3], 8.1 µM; in assay [4], 4.8 µM; in assay [5], 16.4 µM; in assay [6], 14.1 µM. In assay [7], this molecule had a concentration for a half-maximal effect (EC50) of 12.9 µM.

On to `C[C@H]1[C@H](C)CC[C@]2(C(=O)N(C)O)CC[C@]3(C)C(=CC[C@@H]4[C@@]5(C)CCC(=O)C(C)(C)[C@@H]5CC[C@]43C)[C@H]12`, for which the 50% effective concentration (EC50) in assay [1] came to 10.5 µM; in assay [2], 12.8 µM; in assay [3], 9.3 µM; in assay [4], 4 µM; in assay [5], 17.6 µM; in assay [6], 17.6 µM. The molecule further had an EC50 in assay [7] of 12.4 µM.

Consider `CON(C)C(=O)[C@]12CC[C@@H](C)[C@H](C)[C@H]1C1=CC[C@@H]3[C@@]4(C)CC[C@H](OC(C)=O)C(C)(C)[C@@H]4CC[C@@]3(C)[C@]1(C)CC2`, for which the EC50 came out at 23 µM in assay [1]; 17.6 µM in assay [2]; 9.6 µM in assay [3]; 9.8 µM in assay [4]; 15.4 µM in assay [5]; 15 µM in assay [6]. In assay [7], this molecule came in with an EC50 of 12.7 µM.

`CON(C)C(=O)[C@]12CCC(C)(C)C[C@H]1C1=CC[C@@H]3[C@@]4(C)CCC(=O)C(C)(C)[C@@H]4CC[C@@]3(C)[C@]1(C)CC2`: the EC50 in assay [1] was determined as 13.7 µM; in assay [2] it was 15.6 µM; in assay [3], 5.6 µM; in assay [4] it was 8.8 µM; in assay [5], 16.4 µM; in assay [6], 24.3 µM. Also, the EC50 in assay [7] amounted to 20.9 µM.

As for `CON(C)C(=O)[C@]12CC[C@@H](C)[C@H](C)[C@H]1C1=CC[C@@H]3[C@@]4(C)CC[C@H](O)C(C)(C)[C@@H]4CC[C@@]3(C)[C@]1(C)CC2`, the concentration for a half-maximal effect (EC50) in assay [1] stood at 23.3 µM; in assay [2] it was 18.4 µM; in assay [3], 11.6 µM; in assay [4], 21.8 µM; in assay [5], 18.7 µM; in assay [6] it was 26.8 µM. In addition, the concentration giving a half-maximal response (EC50) in assay [7] came out at 22.9 µM.
